Source: BigSolDB 2.1

SMILES: O=C(O)CCCCCCCCCCCC(=O)O
- solubility (mole fraction) (in acetic acid, 288.15 K): 0.00231
- solubility (mole fraction) (in acetic acid, 293.15 K): 0.00309
- solubility (mole fraction) (in acetic acid, 298.15 K): 0.00418
- solubility (mole fraction) (in acetic acid, 303.15 K): 0.00656
- solubility (mole fraction) (in acetic acid, 308.15 K): 0.00975
- solubility (mole fraction) (in acetic acid, 313.15 K): 0.0138
- solubility (mole fraction) (in acetic acid, 318.15 K): 0.0201
- solubility (mole fraction) (in acetic acid, 323.15 K): 0.0253
- solubility (mole fraction) (in acetone, 283.15 K): 0.00192
- solubility (mole fraction) (in acetone, 288.15 K): 0.00207
- solubility (mole fraction) (in acetone, 293.15 K): 0.00302
- solubility (mole fraction) (in acetone, 298.15 K): 0.00409
- solubility (mole fraction) (in acetone, 303.15 K): 0.00633
- solubility (mole fraction) (in acetone, 308.15 K): 0.00892
- solubility (mole fraction) (in acetone, 313.15 K): 0.0128
- solubility (mole fraction) (in acetone, 318.15 K): 0.0166
- solubility (mole fraction) (in acetone, 323.15 K): 0.0234
- solubility (mole fraction) (in ethanol, 283.15 K): 0.00277
- solubility (mole fraction) (in ethanol, 288.15 K): 0.00286
- solubility (mole fraction) (in ethanol, 293.15 K): 0.00388
- solubility (mole fraction) (in ethanol, 298.15 K): 0.00441
- solubility (mole fraction) (in ethanol, 303.15 K): 0.00674
- solubility (mole fraction) (in ethanol, 308.15 K): 0.0115
- solubility (mole fraction) (in ethanol, 313.15 K): 0.0149
- solubility (mole fraction) (in ethanol, 318.15 K): 0.0207
- solubility (mole fraction) (in ethanol, 323.15 K): 0.0263
- solubility (mole fraction) (in ethyl acetate, 283.15 K): 0.00072
- solubility (mole fraction) (in ethyl acetate, 288.15 K): 0.00083
- solubility (mole fraction) (in ethyl acetate, 293.15 K): 0.00111
- solubility (mole fraction) (in ethyl acetate, 298.15 K): 0.00149
- solubility (mole fraction) (in ethyl acetate, 303.15 K): 0.00254
- solubility (mole fraction) (in ethyl acetate, 308.15 K): 0.00361
- solubility (mole fraction) (in ethyl acetate, 313.15 K): 0.00524
- solubility (mole fraction) (in ethyl acetate, 318.15 K): 0.00722
- solubility (mole fraction) (in ethyl acetate, 323.15 K): 0.011
- solubility (mole fraction) (in methanol, 283.15 K): 0.00291
- solubility (mole fraction) (in methanol, 288.15 K): 0.00315
- solubility (mole fraction) (in methanol, 293.15 K): 0.00388
- solubility (mole fraction) (in methanol, 298.15 K): 0.00449
- solubility (mole fraction) (in methanol, 303.15 K): 0.00541
- solubility (mole fraction) (in methanol, 308.15 K): 0.00845
- solubility (mole fraction) (in methanol, 313.15 K): 0.0106
- solubility (mole fraction) (in methanol, 318.15 K): 0.0126
- solubility (mole fraction) (in methanol, 323.15 K): 0.015
